Measured values as given in patent publication US12410171B2, “Tropomyosin receptor kinase (TRK) degradation compounds and methods of use” (Cullgen (Shanghai), Inc., priority 2020, dated 2025).
Read-outs that look alike come from different tables or passages of the source.

What was measured:
[1] = target: T1, TPM3-TRKA fusion protein (Homo sapiens, UniProt P04629); experiment: TPM3-TRKA fusion protein levels in KM12 cells (Western blot); format: cell-based; conditions: read-out: Degradation (at 10 nM)
T1 construct: The resulted chimeric proteins always retain the kinase domain of TRK proteins; TPM3 (fusion partner, N-terminal part of tropomyosin alpha-3, P06753); endogenous in cells; host or cells: KM12 colon cancer cells; the other entry of the earlier key: TPM3 (P06753, Tropomyosin alpha-3 chain)
T1 sequence (P04629 with tags, fused parts or gaps): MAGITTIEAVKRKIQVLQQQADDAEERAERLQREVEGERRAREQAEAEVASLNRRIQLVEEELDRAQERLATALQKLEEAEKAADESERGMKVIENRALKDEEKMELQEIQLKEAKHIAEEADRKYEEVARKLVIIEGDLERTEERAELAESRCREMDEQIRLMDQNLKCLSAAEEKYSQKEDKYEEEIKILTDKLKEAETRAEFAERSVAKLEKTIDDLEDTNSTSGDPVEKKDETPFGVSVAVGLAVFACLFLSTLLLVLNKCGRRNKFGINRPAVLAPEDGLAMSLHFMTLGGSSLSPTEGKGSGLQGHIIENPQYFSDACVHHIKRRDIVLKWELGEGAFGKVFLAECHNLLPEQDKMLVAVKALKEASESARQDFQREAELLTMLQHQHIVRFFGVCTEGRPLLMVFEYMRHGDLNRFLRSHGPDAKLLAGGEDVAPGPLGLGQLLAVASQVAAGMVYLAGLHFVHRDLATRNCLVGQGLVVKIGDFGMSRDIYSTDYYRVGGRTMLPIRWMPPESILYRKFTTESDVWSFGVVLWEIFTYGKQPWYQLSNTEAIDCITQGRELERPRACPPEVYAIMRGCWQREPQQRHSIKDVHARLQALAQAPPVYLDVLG
Summary of the method: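 TPM3-TRKA levels were assessed by Western blot with chemiluminescent detection and band densitometry, after SDS-PAGE of BCA-normalized RIPA lysates. Before lysis, KM12 cells received DMSO, compounds or matched control compounds at concentrations including 0.1, 1, 10 and 100 nM and 0.4–30 nM. Exposures lasted 4 h, 8–16 h or 16 h.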

[2] = test system: KM12 cells; experiment: KM12 cell viability (CellTiter-Glo); format: cell-based; conditions: Homo sapiens, 72 h, KM12 cell viability, CellTiter-Glo, read-out: IC50
Summary of the method: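 Three-day exposure of KM12 cells (5000/well, RPMI 1640 with 10% FBS, 37 °C, 5% CO2) to compound dilution series, 3-fold over 8 or 11 points (top 1000 nM in the 8-point format) or 2-fold over 12. CellTiter-Glo readout, with IC50 fitted by nonlinear least-squares regression.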

[3] = 16 h, TPM3-TRKA degradation in KM12 cells at 10 nM compound, category of percentage degradation
[4] = 16 h, TPM3-TRKA degradation in KM12 cells at 10 nM
[5] = 11-point 3-fold serial dilution, 3 days

SMILES	percent degradation of TPM3-TRKA protein at 0.01 µM [1, 3]	IC50 ([2]; three days treatment)	percent degradation of TPM3-TRKA protein at 0.01 µM [1, 4]	IC50 [2, 5]	percent degradation of TPM3-TRKA protein at 0.01 µM ([1]; KM12, 16 h)
O=C1CCC(N2C(=O)c3ccc(CCCN4CCN(c5ccc(C(=O)Nc6n[nH]c7ccc(Cc8cc(F)cc(F)c8)cc67)c(NC6CCOCC6)c5)CC4)cc3C2=O)C(=O)N1 (stereo not shown) [TR-276, N-(5-(3,5-difluorobenzyl)-1H-indazol-3-yl)-4-(4-(3-(2˜ (2,6-dioxopiperidin-3-yl)-1,3-dioxoisoindolin-5-yl)propyl)piperazin-1-yl)-2-((tetrahydro-2H-pyran-4-yl)amino)benzamide]	> 80%	9.9 nM	–	–	–
O=C1CCC(n2c(=O)oc3c(NCCN4CCN(c5cccc(-c6cnc7ccc(N8CCC[C@@H]8c8cccc(F)c8)nn67)n5)CC4)cccc32)C(=O)N1 (stereo partly drawn) [TR-247, 3-(7-((2-(4-(6-(6-((R)-2-(3-Fluorophenyl)pyrrolidin-1-yl)imidazo[1,2-b]pyridazin-3-yl)pyridin-2-yl)piperazin-1-yl)ethyl)amino)-2-oxobenzo[d]oxazol-3 (2H)-yl)piperidine-2,6-dione]	> 80%	8.2 nM	–	–	–
O=C1CCC(N2C(=O)c3ccc(NCCCCCC(=O)N4CCC(Nc5cccc(C(=O)Nc6cnn7ccc(N8CCC[C@@H]8c8cc(F)ccc8F)nc67)n5)CC4)cc3C2=O)C(=O)N1 (stereo partly drawn) [CPD-471, N-(5-((R)-2-(2,5-difluorophenyl)pyrrolidin-1-yl)pyrazolo[1,5-a]pyrimidin-3-yl)-6-((1-(6-((2-(2,6-dioxopiperidin-3-yl)-1,3-dioxoisoindolin-5-yl)amino)hexanoyl)piperidin-4-yl)amino)picolinamide]	–	–	> 80%	19 nM	–
O=C1CCC(N2Cc3cc(N4CC(CN5CCN(c6ccc(C(=O)Nc7n[nH]c8ccc(Cc9cc(F)cc(F)c9)cc78)c(NC7CCOCC7)c6)CC5)C4)ccc3C2=O)C(=O)N1 (stereo not drawn) [TR-300, N—(S-(3,5-Difluorobenzyl)-1H-indazol-3-yl)-4-(4-((1˜ (2˜ (2,6-dioxopiperidin-3-yl)-1-oxoisoindolin-5-yl)azetidin-3-yl)methyl)piperazin-1-yl)-2-((tetrahydro-2H-pyran-4-yl)amino)benzamide]	50 to 80%	53 nM	–	–	–
O=C1CCC(N2C(=O)c3ccc(CN4CC(CN5CCN(c6ccc(C(=O)Nc7n[nH]c8ccc(Cc9cc(F)cc(F)c9)cc78)cc6)CC5)C4)cc3C2=O)C(=O)N1 (stereo not shown) [TR-262, N-(5-(3,5-Difluorobenzyl)-1H-indazol-3-yl)-4-(4-((1-((2-(2,6-dioxopiperidin-3-yl)-1,3-dioxoisoindolin-5-yl)methyl)azetidin-3-yl)methyl)piperazin-1-yl)benzamide]	> 80%	81 nM	–	–	–
O=C1CCC(N2Cc3cc(C#CC4CCN(c5ccc(C(=O)Nc6n[nH]c7ccc(Cc8cc(F)cc(F)c8)cc67)c(NC6CCOCC6)c5)CC4)ccc3C2=O)C(=O)N1 (stereo not shown) [TR-323, N-(5-(3,5-Difluorobenzyl)-1H-indazol-3-yl)-4-(4-((2-(2,6-dioxopiperidin-3-yl)-1-oxoisoindolin-5-yl)ethynyl)piperidin-1-yl)-2-((tetrahydro-2H-pyran-4-yl)amino)benzamide]	–	31 nM	–	–	> 80%
COc1ccc(COc2ccc(Cn3c(N)nc4cc(-c5cnn(CC(=O)NCCCCCCNc6cccc7c6C(=O)N(C6CCC(=O)NC6=O)C7=O)c5)cnc43)cc2OC)cc1 (stereo not shown) [CPD-500, 2-(4-(2-amino-3-(3-methoxy-4-((4-methoxybenzyl)oxy)benzyl)-3H-imidazo[4,5-b]pyridin-6-yl)-1H-pyrazol-1-yl)-N-(6-((2-(2,6-dioxopiperidin-3-yl)-1,3-dioxoisoindolin-4-yl)amino)hexyl)acetamide]	–	–	> 80%	13.2 nM	–
O=C1CCC(N2C(=O)c3ccc(N4CCN(c5ccc(C(=O)Nc6n[nH]c7ccc(Cc8cc(F)cc(F)c8)cc67)c(NC6CCOCC6)c5)CC4)cc3C2=O)C(=O)N1 (stereo not shown) [TR-269, N-(5-(3,5-Difluorobenzyl)-1H-indazol-3-yl)-4-(4-(2-(2,6-dioxopiperidin-3-yl)-1,3-dioxoisoindolin-5-yl)piperazin-1-yl)-2-((tetrahydro-2H-pyran-4-yl)amino)benzamide]	< 50%	44.6 nM	–	–	–
COc1ccc(COc2ccc(Cn3c(N)nc4cc(-c5cnn(CC(=O)NCCCCCCCCNc6cccc7c6C(=O)N(C6CCC(=O)NC6=O)C7=O)c5)cnc43)cc2OC)cc1 (stereo not shown) [CPD-501, 2-(4-(2-amino-3-(3-methoxy-4-((4-methoxybenzyl)oxy)benzyl)-3H-imidazo[4,5-b]pyridin-6-yl)-1H-pyrazol-1-yl)-N-(8-((2-(2,6-dioxopiperidin-3-yl)-1,3-dioxoisoindolin-4-yl)amino)octyl)acetamide]	–	–	> 80%	13.2 nM	–
O=C1CCC(N2C(=O)c3ccc(C4CN(CC5CCN(c6ccc(C(=O)Nc7n[nH]c8ccc(Cc9cc(F)cc(F)c9)cc78)c(NC7CCOCC7)c6)CC5)C4)cc3C2=O)C(=O)N1 (stereo not shown) [TR-328, N-(5-(3,5-Difluorobenzyl)-1H-indazol-3-yl)-4-(4-((3˜ (2-(2,6-dioxopiperidin-3-yl)-1,3-dioxoisoindolin-5-yl)azetidin-1-yl)methyl)piperidin-1-yl)-2-((tetrahydro-2/7-pyran-4-yl)amino)benzamide]	> 80%	35.9 nM	–	–	–
O=C1CCC(N2C(=O)c3ccc(NCCN4CCN(c5ccc(C(=O)Nc6n[nH]c7ccc(Cc8cc(F)cc(F)c8)cc67)c(NCCF)c5)CC4)cc3C2=O)C(=O)N1 (stereo not shown) [TR-268, N-(5-(3,5-Difluorobenzyl)-1H-indazol-3-yl)-4-(4-(2-((2-(2,6-dioxopiperidin-3-yl)-1,3-dioxoisoindolin-5-yl)amino)ethyl)piperazin-1-yl)-2-((2-fluoroethyl)amino)benzamide]	> 80%	6.2 nM	–	–	–
O=C1CCC(N2C(=O)c3ccc(NC4CCC(N5CCN(c6ccc(C(=O)Nc7n[nH]c8ccc(Cc9cc(F)cc(F)c9)cc78)c(NC7CCOCC7)c6)CC5)CC4)cc3C2=O)C(=O)N1 (stereo not shown) [TR-289, N-(5-(3,5-Difluorobenzyl)-1H-indazol-3-yl)-4-(4-(4-((2-(2,6-dioxopiperidin-3-yl)-1,3-dioxoisoindolin-5-yl)amino)cyclohexyl)piperazin-1-yl)-2-((tetrahydro-2H-pyran-4-yl)amino)benzamide]	> 80%	3.8 nM	–	–	–
O=C1CCC(N2Cc3ccc(C#CCN4CCN(c5ccc(C(=O)Nc6n[nH]c7ccc(Cc8cc(F)cc(F)c8)cc67)c(NC6CCOCC6)c5)CC4)cc3C2=O)C(=O)N1 (stereo not drawn) [TR-298, N—(S-(3,5-Difluorobenzyl)-1H-indazol-3-yl)-4-(4-(3-(2-(2,6-dioxopiperidin-3-yl)-3-oxoisoindolin-5-yl)prop-2-yn-1-yl)piperazin-1-yl)-2-((tetrahydro-2/-pyran-4-yl)amino)benzamide]	> 80%	30 nM	–	–	–
O=C1CCC(N2C(=O)c3ccc(N4CCC(N5CCN(c6ccc(C(=O)Nc7n[nH]c8ccc(Cc9cc(F)cc(F)c9)cc78)c(NC7CCOCC7)c6)CC5)C4)cc3C2=O)C(=O)N1 (stereo not shown) [TR-284, N-(5-(3,5-difluorobenzyl)-1H-indazol-3-yl)-4-(4-(1-(2-(2,6-dioxopiperidin-3-yl)-1,3-dioxoisoindolin-5-yl)pyrrolidin-3-yl)piperazin-1-yl)-2-((tetrahydro-2H-pyran-4-yl)amino)benzamide]	> 80%	5 nM	–	–	–
